We go through 15 molecules from patent publication US5605929A, “Methods and compositions for inhibiting 5α-reductase activity” (priority 1995, dated 1997).

The test system of one assay is 5α-reductase. As to the kind of experiment: Catechin gallates in rat liver microsomes or cells expressing type 1 or type 2 5α-reductase. The settings on record: for inhibitory activity: vs catechin gallate. The assay is classed as biochemical. (In general: Liver microsomes are vesicles of endoplasmic reticulum, rich in cytochrome P450 enzymes.)
In assay [1] the target is T1, 5α-Reductase of Rat Liver Microsomes (Rattus norvegicus, UniProt P24008).
T1 sequence (P24008 1-259): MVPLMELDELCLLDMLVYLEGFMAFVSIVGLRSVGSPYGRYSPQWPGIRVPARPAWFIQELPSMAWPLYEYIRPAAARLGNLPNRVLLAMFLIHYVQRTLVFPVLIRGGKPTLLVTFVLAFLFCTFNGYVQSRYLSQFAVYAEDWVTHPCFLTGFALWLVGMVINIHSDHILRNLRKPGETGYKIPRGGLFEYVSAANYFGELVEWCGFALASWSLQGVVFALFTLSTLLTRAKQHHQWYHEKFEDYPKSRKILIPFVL
Put plainly: biochemical. Conditions: for activation at 200 µM: 1 h, read-out: stimulation of [^3 H]4-MA binding.
Protocol: (§1) Briefly, the binding assay solution, in a final volume of 0.15 ml, contained microsomes (2-20 μg of protein), 0.08 μCi of [^3 H]4-MA, 0.1 mM-NADPH, 1 mM-dithiothreitol and 50 mM-potassium phosphate, pH 7.0, with or without the indicated amount of a lipid or an inhibitor preparation. Lipids were dissolved in ethanol and added in 1-5 μl volumes. Control tubes received the same amount of ethanol. After incubation at 0° C. for 1 h, the [^3 H]4-MA bound to microsomes was determined by collecting microsomes on a Whatman GF/1F glass fibre filter and washing with 10 ml of 20 mM-potassium phosphate, pH 7.0, containing 0.01% CHAPS to remove unbound [^3 H]4-MA.
(§2) Microsomes were prepared at 4° C. from a buffered 0.32M-sucrose homogenate of human liver and from the livers of adult Sprague-Dawley female rats by differential centrifugation as described previously (Liang et al., 1990), and were used in the assay of 5α-reductase activity. In some experiments, microsomes were solubilized with 0.1% polyoxyethylene ether W-1 as described previously (Liang et al., 1990), except for the substitution of polyoxyethylene ether W-1 for Lubrol-WX.

For assay [2], the target named is T1, 5α-Reductase of Rat Liver Microsomes. Conditions: for stimulation or inhibition of [^3 H]4-MA binding: 40 μM.
Protocol: as §1, §2
For a further assay, the system named is hamster flank organ. As to the kind of experiment: Flank organ, castrated immature male hamsters, topical treatment. The assay is classed as in vivo, Syrian golden hamster. Conditions: for Pigmented macule Right (+T): T alone 49.6 ± 8.3; for Pigmented macule Left: Table 5, fatty acid 1 mg without T; for inhibition of T-induced growth of pigmented macule: hamster, in vivo. On the procedure: One to two weeks after castration, the hair on the lower back of each animal was clipped with an electric hair clipper and then shaved weekly to expose the flank organs. The animals were divided into 5 animals/treatment group. A treatment solution (5 μl) was applied topically to the right flank organ once a day using a Pipetteman and a polypropylene disposable tip. Unless specified the left flank organ was not treated. The treatment solution contained either (a) ethanol alone (vehicle and control), (b) an androgen (T or 5α-DHT), (c) a fatty acid, or (d) a combination of an androgen and a fatty acid. The flank organ was wiped with an alcohol pad to remove residual compound before each treatment. […] The flank organs, both the treated and untreated sides, were evaluated with methods to be described below to determine the effect of these treatments of the growth of the pigmented macules and the sebaceous glands. The body weight of each animal was recorded before and after treatment.
The data are presented as mean ± standard deviation. […]

Assay [3] concerns the target T1, 5α-Reductase of Rat Liver Microsomes. Put plainly: [3H]4-MA binding assay, rat liver microsomes (tea catechins). The settings on record: concentrations up to 200 μM. On the procedure: Microsomes were prepared as described previously (Liang and Liao, 1992) from the liver of adult Sprague-Dawley female rats or Rat-1A cells expressing a specific type of human 5α-reductase. Each study was carried out in duplicate or triplicate which were usually within 10% of each other. Several studies were preformed to assure that the results shown are representative. The data presented was based on the rate of reaction.
[^3 H]4-MA binding assay were described in detail previously (Liang and Liao, 1992; Liang et al., 1983). […] The reaction was started by the addition of 25 μl of microsomes (25 μg protein). After 30-60 min incubation at 0° C., the [^3 H]4-MA bound to microsomes was collected on a Whatman GF/F glass fiber, washed and radioactivity determined (Liang and Liao, 1992).

Where [4] appears, read: read-out: % Inhibition of [^3 H]4-MA binding, Table 1, 40 μM.
Setting [5] is: read-out: % Inhibition of [^3 H]4-MA binding, Table 1, 200 μM.
The mark [6] stands for this setting: read-out: % Inhibition of [^3 H]4-MA binding, Table 2, 5 μM.
Where [7] appears, read: read-out: % Inhibition of [^3 H]4-MA binding, Table 2, 10 μM.
Setting [8] is: read-out: % Inhibition of [^3 H]4-MA binding, Table 2, 40 μM.
[9] abbreviates: read-out: % Inhibition of [^3 H]4-MA binding, Table 2, 200 μM.
[10] abbreviates: Table 5, T 0.5 μg + fatty acid 1 mg, 21 days.
[11] abbreviates: read-out: % Inhibition of [^3 H]4-MA binding.
[12] abbreviates: Table 5, T 0.5 μg + fatty acid 1 mg.

SMILES strings stand for the structures. Read-outs that look alike come from different tables or passages of the source. Where only a bound is given, the exact number is not on record here.

For the molecule `NC(=O)c1cc(O)c(O)c(O)c1` [3,4,5-trihydroxybenzamide], the “inhibitory activity” value with 5α-reductase is given as “not as active as catechin gallate”.
For `CC1=C(/C=C/C(C)=C/C=C/C(C)=C\C(=O)O)C(C)(C)CCC1` [13-cis-retinoic acid], the activation at 200 µM in assay [1] is 58%. Besides, in assay [2], the “inhibitory activity in [^3 H]4-MA binding assay” value is “slightly stimulatory” and the “stimulation or inhibition of [^3 H]4-MA binding” value is reported as “no stimulation or inhibition”.
Consider `CC1=C(/C=C/C(C)=C/C=C/C(C)=C\CO)C(C)(C)CCC1` [13-cis-retinol], for which the activation at 200 µM in assay [1] stood at 58%. Further, in assay [2], the “inhibitory activity in [^3 H]4-MA binding assay” value is reported as “slightly stimulatory” and the “stimulation or inhibition of [^3 H]4-MA binding” value is recorded as “no stimulation or inhibition”.
As for `Oc1cc(O)c2c(c1)OC(c1ccc(O)c(O)c1)C(O)C2` (stereo not drawn) [Catechin], in the assay with 5α-reductase (40 μM), the inhibition result is “less than 25%”.
`CC/C=C\C/C=C\C/C=C\C/C=C\C/C=C\C/C=C\CCC(=O)O` [Docosahexaenoic acid, cis-4,7,10,13,16,19-docosahexaenoic acid]: the IC50 in assay [1] is 47 µM. The inhibition at 10 µM in assay [1] (read-out: % Inhibition of [^3 H]4-MA binding, Table 1, 10 μM) is below 10%; in assay [1] (setting [7]) it was 18%. Besides, the inhibition at 40 µM in assay [1] (setting [4]) turned out to be 27 ± 1%; in assay [1] (setting [8]) it was 49%. In addition, the inhibition at 200 µM in assay [1] (setting [5]) was found to be 87 ± 6%; in assay [1] (setting [9]) it was 86%. The inhibition at 5 µM in assay [1] (setting [6]) was below 10%. Further, in assay [2], the “inhibitory activity in [^3 H]4-MA binding assay” value was “potent inhibitor”.
`CCCCCCCC/C=C\CCCCCCCCCCCC(=O)O` [Erucic acid] showed an IC50 in assay [1] above 200 µM. The inhibition at 40 µM in assay [1] (setting [4]) and in assay [1] (setting [8]) was below 10% in each case. In addition, the inhibition at 200 µM in assay [1] (setting [5]) and in assay [1] (setting [9]) was below 10% each time. In assay [1] (setting [7]), the inhibition at 10 µM is below 10%. Also, in the assay with hamster flank organ (setting [10]), the “Percent Inhibition” value was determined as 29%. For the same molecule, the “Pigmented macule Right (+T)” value in the assay with hamster flank organ (setting [10]) is listed as 35.4 ± 4.6 mm^2. The “Pigmented macule Left” value in the assay with hamster flank organ (21 days) was found to be 4.6 ± 1.5 mm^2. In addition, the “inhibition of T-induced growth of pigmented macule” value (from here on “inhibition … of pigmented macule”) with hamster flank organ is on record as “Weak inhibitions”. For the same molecule, in assay [2], the “inhibitory activity in [^3 H]4-MA binding assay” value was “inactive”.
As for `CCCCC/C=C\C/C=C\C/C=C\CCCCC(=O)OCC(O)CO` (stereo not drawn) [Monoγ-Linolenin], in assay [1] (setting [6]), the inhibition at 5 µM was below 10%. Moreover, the inhibition at 10 µM in assay [1] (setting [7]) was below 10%. Further, the inhibition at 40 µM in assay [1] (setting [8]) stood at 35%. Further, the inhibition at 200 µM in assay [1] (setting [9]) amounted to 87%. This molecule returned an IC50 in assay [2] of 86 µM.
Consider `CCCC/C=C\CCCCCCCC(=O)O` [Myristoleic acid], for which, in assay [1] (setting [11]), the inhibition at 5 µM is below 10%, the inhibition at 10 µM is below 10%, the inhibition at 40 µM came out at 25 ± 4% and the inhibition at 200 µM was determined as 43 ± 1%. In assay [2] (Table 2, 10 μM), the “% Inhibition of [^3 H]4-MA binding” value was “NA (less than 10% inhibition were considered not active (NA))”.
Regarding `CCCCCCCC/C=C\CCCCCCCCCCCCCC(=O)O` [Nervonic acid], in assay [1], the IC50 was above 200 µM. Besides, the inhibition at 40 µM in assay [1] (setting [4]) and in assay [1] (setting [8]) was below 10% throughout. Besides, the inhibition at 200 µM in assay [1] (setting [5]) and in assay [1] (setting [9]) was below 10% each time. Besides, the “p (significance of inhibition)” value in the assay on hamster flank organ (setting [12]) was “N.S”. The “Pigmented macule Right (+T)” value in the assay with hamster flank organ (setting [10]) is reported as 39.9 ± 5.4 mm^2. Besides, the “Pigmented macule Left” value in the assay on hamster flank organ (21 days) is given as 4.0 ± 1.5 mm^2. For the same molecule, the “inhibition … of pigmented macule” value in the assay on hamster flank organ was “no significant inhibition”. In addition, the “inhibitory activity in [^3 H]4-MA binding assay” value in assay [2] was “inactive”.
Consider `C=CCCCCCCCCC(=O)O` [Undecylenic acid], for which, in assay [1] (setting [11]), the inhibition at 10 µM was below 10%, the inhibition at 40 µM was below 10% and the inhibition at 200 µM amounted to 13 ± 2%. The “p (significance of inhibition)” value in the assay on hamster flank organ (setting [12]) was “N.S”. Moreover, the “Pigmented macule Right (+T)” value in the assay on hamster flank organ (setting [10]) is recorded as 41.7 ± 10.7 mm^2. For the same molecule, the “Pigmented macule Left” value in the assay with hamster flank organ (21 days) turned out to be 4.7 ± 1.2 mm^2. Also, the “inhibition … of pigmented macule” value with hamster flank organ is listed as “no significant inhibition”. Besides, in assay [2], the “inhibitory activity in [^3 H]4-MA binding assay” value was “inactive”. In assay [2] (Table 2, 40 μM), the “% Inhibition of [^3 H]4-MA binding” value is recorded as “NA (less than 10% inhibition were considered not active (NA))”.
Consider `O=C(O)c1cc(O)c(O)c(O)c1` [gallic acid, reference compound], for which the “inhibitory activity” value is reported as “not as active as catechin gallate” with 5α-reductase and “not active” in assay [3].
Turning to `COC(=O)c1cc(O)c(O)c(O)c1` [methyl gallate], the “inhibitory activity” value with 5α-reductase is “not as active as catechin gallate”.
Same read-out and setting: in the case of `CCCCCCCCOC(=O)c1cc(O)c(O)c(O)c1` [n-octyl gallate] it was “low inhibitory activity”.
On to `CCCOC(=O)c1cc(O)c(O)c(O)c1` [n-propyl gallate], for which, in the assay on 5α-reductase, the “inhibitory activity” value was “not as active as catechin gallate”.
Turning to `CCCCC[C@H](O)/C=C/[C@H]1C=CC(=O)[C@@H]1C/C=C\CCCC(=O)O` [prostaglandin A2], the “inhibitory activity in [^3 H]4-MA binding assay” value in assay [2] (0.2 mM) is recorded as “somewhat active”.

For orientation: inhibition means the change of the read-out against control, counted positive when it falls. The term IC50 denotes the concentration that inhibits the measured activity by half.
